Measurements taken from patent US12102618B2, “Use of riluzole prodrugs to treat ataxias” (Biohaven Therapeutics Ltd., priority 2017, dated 2024).

System: ataxia symptoms in subjects with spinocerebellar ataxia (SCA)
Test: Phase IIb/III randomized, double-blind, placebo-controlled trial of BHV-4157 in SCA (BHV4157-201), 8-week randomization phase: SARA
Assay type: in vivo, human
Set-up: key to Total SARA change / Total SARA, Δ Btw Groups / Axial SARA [#1-4] change / Appendicular SARA [4-8] change / Total SARA change (LSmeans) / Gait [#1] change (LSmeans) / Axial Items [#1-4] change (LSmeans) / Appendicular [#5-8] change (LSmeans) / Change in Total SARA Score / Axial Items [1-4] change / Appendicular Items [5-8] change / ΔSARA (between groups): SARA points; total scale 0 (no ataxia) to 40 (severe)
Conditions: for Total SARA, Δ Btw Groups / ΔSARA (between groups): BHV-4157 vs placebo; for Total SARA, week 8 StdChg / Total SARA, week 8 Δ Mean: all subjects
Experimental: One measure for assessment of the methods of the present invention is by using the Scale for the Assessment and Rating of Ataxia (“SARA”).
The SARA was developed as a clinician-administered instrument to measure severity of symptoms in patients with SCA. While there are multiple scales available, the SARA has been tested in many patients with SCA.
The SARA scores range from 0 (no ataxia) to 40 (severe). The SARA takes approximately 15 minutes to administer. Assessed items include: • Gait (rated 0 to 8) • Stance (0 to 6) • Sitting (0 to 4) • Speech disturbance (0 to 6) • Finger chase (0 to 4) • Nose-finger test (0 to 4) • Fast alternating hand movements (0 to 4) • Heel-shin slide (0 to 4)
Once each of the 8 categories has been assessed, the total score is calculated to determine the severity of ataxia. For motor activities of the four extremities (items 5-8), assessments are performed bilaterally and the mean values are used to obtain the total score.
The purpose of this study is to compare the efficacy of BHV-4157 versus placebo on ataxia symptoms in subjects with spinocerebellar ataxia (SCA).
Study Type: Interventional Study Design: Allocation: Randomized • Intervention Model: Parallel Assignment • Masking: Quadruple (Participant, Care Provider, Investigator, Outcomes Assessor) • Primary Purpose: Treatment • Official Title: A Phase IIb/III, Randomized, Double-blind, Placebo-controlled Trial of BHV-4157 in Adult Subjects With Spinocerebellar Ataxia Primary Outcome Measures: • To measure the change in total score on the Scale for Assessment and Rating of Ataxia (SARA) [Time Frame: The change in total score from baseline to week 8.] Secondary Outcome Measures: • To assess the safety and tolerability of BHV-4157 in subjects with SCA by measuring the frequency and severity of adverse events and discontinuations of adverse events. [Time Frame: Baseline to week 8.] Measured by the frequency and severity of adverse events and discontinuations of adverse events. • To compare efficacy of BHV-4157 with placebo on patient impression of benefit via use of the PGI-C [Time Frame: Baseline to Week 8] Change in PGI-C score
The study is a Phase IIb/III, multicenter, randomized, double-blind, 2-arm placebo-controlled parallel-group study designed to assess safety, tolerability, and efficacy signals in a population of patients with Spinocerebellar Ataxia (SCA). Subjects will be randomized to receive placebo (QD) or BHV-4157 (140 mg QD), stratified by diagnosis (genotype) and baseline severity (Gait Item of the SARA of ≤4 and >4). Subjects with SCA3 genotype will be limited to comprise up to approximately 10% of the total population so that this most common type of SCA is not over-represented.
Dosing will continue for 8 weeks. Subjects will return to the clinic two weeks after discontinuing study medication for a follow-up safety visit. In addition, subjects completing the Randomization Phase will be offered 48 weeks of open-label treatment as long as the PI believes open-label treatment offers an acceptable risk-benefit profile. Subjects who agree to enter the Extension Phase will not be required to wash-out of drug or complete the follow-up safety visit, but instead should continue dosing as specified in the extension phase. Subjects entering the Extension Phase would have their first Extension Visit four weeks after the Week 8 Randomization Phase visit. If there is a delay of two weeks or more in dosing between the Randomization Phase and the Extension Phase, subjects will be required to complete an Extension Baseline Visit. Thereafter, subjects will undergo visits every fourth week through Week 12 of this phase. Then subjects will undergo visits every 12 weeks up to Week 48 of this phase.

[1] = Females Subjects in Experienced Site Group, n = 17
[2] = Females Subjects in Stable Subgroup, n = 18
[3] = NOT-STABLE subjects, n = 28, week 8
[4] = STABLE subjects, n = 34, week 8
[5] = experienced sites/raters population
[6] = experienced sites/raters population, n = 37, week 8

SMILES: CN(CC(=O)Nc1nc2ccc(OC(F)(F)F)cc2s1)C(=O)CNC(=O)CN [BHV-4157, troriluzole]
- Responders, ≥1 point [1]: 71%
- Responders, ≥3 points [1]: 41%
- Responders, ≥1 point [2]: 67%
- Responders, ≥3 points [2]: 39%
- Change in Total SARA Score (Females, All Subjects, n = 31, week 8): −1.08
- Change in Total SARA Score (Females, Experience of Sites, n = 20): −1.15
- Change in Total SARA Score (Females, STABLE Subgroup, n = 18): −1.33
- Responder Analysis, ≥3 points in Stable Subjects (n = 38) (Females, printed on line Experience of Sites): 35%
- Responder Analysis, ≥3 points at Experienced sites (n = 33) (Females, printed on line STABLE Subgroup): 39%
- Appendicular SARA [4-8] change [3]: −0.15
- Axial SARA [#1-4] change [3]: −0.46
- Total SARA change (STABLE subjects (screening-to-baseline SARA within 1 point), n = 34, 140 mg QD, baseline to week 8): −0.90
- Total SARA, Δ Btw Groups (STABLE subjects, week 8): −0.39
- Appendicular SARA [4-8] change [4]: −0.36
- Axial SARA [#1-4] change [4]: −0.27
- Responders, Response Definition ≥3 points (Total SARA) (Table 1, printed on line Total SARA STABLE, week 8): 24%
- Responders, Response Definition ≥ 1 point (Total SARA) (Table 1, printed on line Total SARA UNSTABLE, week 8): 59%
- Total SARA change (UNSTABLE / NOT-STABLE subjects, n = 28, 140 mg QD, week 8): −0.87
- Total SARA, Δ Btw Groups (UNSTABLE subjects, week 8): 0.62
- Total SARA, week 8 StdChg (n = 63, May-18): 0.459
- Total SARA, week 8 Δ Mean (n = 63, May-18 analysis, listed as BHV): −0.810
- Total SARA, week 8 Δ Mean (n = 63, May-18 analysis, listed as BHV5157): −0.81
- Total SARA, week 8 StdChg (n = 63, Sep-17 analysis): 0.459
- Total SARA, week 8 Δ Mean (n = 63, Sep-17 analysis): −0.810
- Responders, Response Definition ≥1 point [5]: 51.4%
- Responders, Response Definition ≥3 points [5]: 21.6%
- Appendicular [#5-8] change (LSmeans) [6]: −0.52
- Axial Items [#1-4] change (LSmeans) [6]: −0.47
- Gait [#1] change (LSmeans) [6]: −0.14
- Total SARA change (LSmeans) [6]: −1.37
- Responder Analysis, ≥3 points in All Subjects (n = 65) (lighter median): 33%
- Change in Total SARA Score (lighter median (≤76.4 kg), all lighter subjects, n = 27, week 8): −1.38
- ΔSARA (between groups) (lighter median, EXP Sites): −1.03
- Change in Total SARA Score (lighter median, EXP Sites, n = 18): −1.64
- ΔSARA (between groups) (lighter median, Stable Subgroup): −0.83
- Change in Total SARA Score (lighter median, Stable Subgroup, n = 19): −1.18
- Appendicular Items [5-8] change (lighter median, n = 27): −0.69
- Axial Items [1-4] change (lighter median, n = 27): −0.85
- Responder Analysis, ≥3 points in Stable Subjects (n = 36) (lighter median, printed on line EXP Sites): 39%
- Responder Analysis, ≥3 points at Experienced sites (n = 36) (lighter median, printed on line Stable Subgroup): 26%
